Measured values as given in ChEMBL document CHEMBL1287710, “A novel small-molecule inhibitor of IL-6 signalling” (Bioorg Med Chem Lett, 2010).
Calls of active or inactive are those of the source. The rule behind the calls is not given here.

What was measured:
[1] = biological target: Signal transducer and activator of transcription 3 (Homo sapiens) (UniProt P40763); experiment: Inhibition of IL-6 induced STAT3 phosphorylation at tyrosine 705 residue in serum-starved human HeLa cells at 10 to 30 uM after 20 mins by Western blot analysis; type: cell-based
[2] = biological target: Signal transducer and activator of transcription 3 (Homo sapiens) (UniProt P40763); experiment: Inhibition of STAT3 in IL-6-stimulated human MDA-MB-231 cells assessed as reduction in cell viability up to 125 uM after 24 hrs by MTS assay; type: cell-based
MDA-MB-231 = experiment: Cytostatic activity against human MDA-MB-231 cells assessed as cell viability after 24 hrs by trypan blue assay; type: functional, cell-based
[3] = biological target: Signal transducer and activator of transcription 3 (Homo sapiens) (UniProt P40763); experiment: Inhibition of STAT3 in human HeLa cells at 5 to 100 uM by luciferase reporter assay; type: cell-based
[4] = biological target: Signal transducer and activator of transcription 3 (Homo sapiens) (UniProt P40763); experiment: Inhibition of IL-6 induced STAT3 phosphorylation at tyrosine 705 residue in serum-starved human MDA-MB-231 cells at 30 to 100 uM after 20 mins by Western blot analysis; type: cell-based
[5] = biological target: T1, Signal transducer and activator of transcription 1-alpha/beta (Homo sapiens) (UniProt P42224); experiment: Induction of STAT1 phosphorylation in human HeLa cells at 30 to 100 uM by Western blot analysis; type: cell-based
T1 sequence (whole entry): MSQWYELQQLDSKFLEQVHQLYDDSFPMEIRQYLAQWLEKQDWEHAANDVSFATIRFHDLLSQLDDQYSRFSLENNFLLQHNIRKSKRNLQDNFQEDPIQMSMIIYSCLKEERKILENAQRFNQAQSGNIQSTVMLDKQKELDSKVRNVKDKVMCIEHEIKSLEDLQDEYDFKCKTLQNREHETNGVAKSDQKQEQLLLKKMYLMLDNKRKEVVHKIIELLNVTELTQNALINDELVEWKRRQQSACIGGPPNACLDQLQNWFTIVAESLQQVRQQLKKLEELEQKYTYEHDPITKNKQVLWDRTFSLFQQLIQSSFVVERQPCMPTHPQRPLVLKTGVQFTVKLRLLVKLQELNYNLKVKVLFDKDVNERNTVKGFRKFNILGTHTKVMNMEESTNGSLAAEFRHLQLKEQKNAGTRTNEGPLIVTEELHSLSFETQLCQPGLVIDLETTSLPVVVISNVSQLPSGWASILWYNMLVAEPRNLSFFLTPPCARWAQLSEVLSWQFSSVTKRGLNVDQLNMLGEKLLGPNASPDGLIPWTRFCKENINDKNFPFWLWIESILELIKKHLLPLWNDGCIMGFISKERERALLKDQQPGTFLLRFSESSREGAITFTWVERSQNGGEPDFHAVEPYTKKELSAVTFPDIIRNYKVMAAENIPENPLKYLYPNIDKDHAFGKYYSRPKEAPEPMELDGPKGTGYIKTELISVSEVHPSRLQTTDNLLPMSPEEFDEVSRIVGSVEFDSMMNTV

Sequence of Signal transducer and activator of transcription 3 (Homo sapiens) (P40763 whole entry): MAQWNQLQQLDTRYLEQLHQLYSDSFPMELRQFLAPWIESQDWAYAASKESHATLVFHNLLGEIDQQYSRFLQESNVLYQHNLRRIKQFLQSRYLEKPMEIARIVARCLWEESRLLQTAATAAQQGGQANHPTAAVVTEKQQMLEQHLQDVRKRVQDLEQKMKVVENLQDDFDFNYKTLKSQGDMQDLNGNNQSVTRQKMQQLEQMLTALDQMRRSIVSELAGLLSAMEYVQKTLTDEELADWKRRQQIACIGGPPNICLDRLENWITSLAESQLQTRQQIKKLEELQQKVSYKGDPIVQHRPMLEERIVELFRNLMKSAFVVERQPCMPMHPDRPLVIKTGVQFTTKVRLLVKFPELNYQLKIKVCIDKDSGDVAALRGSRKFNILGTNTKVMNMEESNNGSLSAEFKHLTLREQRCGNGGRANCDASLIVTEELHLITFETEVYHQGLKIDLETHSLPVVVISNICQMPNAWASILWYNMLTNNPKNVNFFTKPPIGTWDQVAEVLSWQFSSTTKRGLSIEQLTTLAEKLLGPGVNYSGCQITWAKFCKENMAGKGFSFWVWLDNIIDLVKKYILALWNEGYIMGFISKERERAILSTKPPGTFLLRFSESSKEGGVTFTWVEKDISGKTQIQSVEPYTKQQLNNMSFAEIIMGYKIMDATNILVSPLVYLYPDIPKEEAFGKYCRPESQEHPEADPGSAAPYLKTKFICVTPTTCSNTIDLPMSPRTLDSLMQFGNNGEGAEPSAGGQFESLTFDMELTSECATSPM

Activity [1]: Active
Activity [3]: 15 µM
Activity [4]: Active
Activity [5]: Active
SMILES: Cc1ccc(-c2sc(C(=O)NCc3cccs3)cc2S(=O)(=O)N2CCCC2)cc1
inhibition [2]: 40%
Activity (MDA-MB-231): inactive
